Measured values taken from patent US7462600B2, “Macrolides” (Pfizer Inc, priority 2004, dated 2008).
In brackets after ≈: the same amount, converted by molar mass. Where two headings read alike, the source gives them in different places.

What was measured:
Type in all cases: cell-based
[1] = tested on: Streptococcus pyogenes 1079; experiment: MIC, microtiter broth dilution (NCCLS M100-S14), S. pyogenes 1079 (ermB)
Description: (§1) The assay described herein includes a panel of bacterial strains assembled to include a variety of target pathogenic species, including representatives of macrolide resistance mechanisms that have been characterized. In many cases, both the macrolide-susceptible parent strain and the macrolide-resistant strain derived from it are available to provide a more accurate assessment of the compound's ability to circumvent the resistance mechanism. The assay is performed in microtiter trays and interpreted according to Performance Standards for Antimicrobial Susceptibility Testing; 14th Informational Supplement (M100-S14), published by The National Committee for Clinical Laboratory Standards (NCCLS) guidelines; the MIC is used to compare strains. Compounds are initially dissolved in DMSO as 40 mg/ml stock solutions.

[2] = tested on: Streptococcus pneumoniae 1016; experiment: MIC, microtiter broth dilution (NCCLS M100-S14), S. pneumoniae 1016 (susceptible)
Description: as §1

[3] = tested on: Streptococcus pneumoniae 1095; details: microtiter broth dilution
Description: as §1

[4] = tested on: Streptococcus pneumoniae 1175; details: microtiter broth dilution
Description: as §1

[5] = tested on: Haemophilus influenzae 1218; experiment: MIC, microtiter broth dilution (NCCLS M100-S14), H. influenzae 1218 (susceptible)
Description: as §1

[6] = S. pneumoniae 1016 (susceptible)
[7] = H. influenzae 1218 (susceptible)

## CCC1OC(=O)C(C)C(=O)C(C)C(OC2OC(C)CC(N(C)C)C2O)C(C)(OC)CC(C)C(=O)C(C)C2N(C3CN(C(C)c4ccncc4)C3)C(=O)OC12C (stereo not drawn) [Example 1.21, 1R-(pyridin-4-yl)ethyl]
[1]; Streptococcus pyogenes 1079
  MIC S. pyogenes 1079: 32 µg/mL (≈ 41.4 µM)
[2]; Streptococcus pneumoniae 1016
  MIC S. pneumo. 1016: <0.06 µg/mL
[3]; Streptococcus pneumoniae 1095
  MIC S. pneumo. 1095: <0.06 µg/mL
[4]; Streptococcus pneumoniae 1175
  MIC S. pneumo. 1175: 0.5 µg/mL (≈ 0.647 µM)
[5]; Haemophilus influenzae 1218
  MIC H. influenzae 1218: 2 µg/mL (≈ 2.59 µM)

## CCC1OC(=O)C(C)C(=O)C(C)C(OC2OC(C)CC(N(C)C)C2O)C(C)(OC)CC(C)C(=O)C(C)C2N(C3CN(Cc4cc(OC)nc5ccccc45)C3)C(=O)OC12C (stereo not shown) [Example 1.39, (2-methoxyquinolin-4-yl)methyl]
[1]; Streptococcus pyogenes 1079
  MIC S. pyogenes 1079: 16 µg/mL (≈ 19.1 µM)
[2]; Streptococcus pneumoniae 1016
  MIC S. pneumo. 1016: <0.06 µg/mL
[3]; Streptococcus pneumoniae 1095
  MIC S. pneumo. 1095: <0.06 µg/mL
[4]; Streptococcus pneumoniae 1175
  MIC S. pneumo. 1175: 0.25 µg/mL (≈ 0.298 µM)
[5]; Haemophilus influenzae 1218
  MIC H. influenzae 1218: 1 µg/mL (≈ 1.19 µM)

## CCC1OC(=O)C(C)C(=O)C(C)C(OC2OC(C)CC(N(C)C)C2O)C(C)(OC)CC(C)C(=O)C(C)C2N(C3CN(Cc4cccc5ccccc45)C3)C(=O)OC12C (stereo not shown) [Example 1.91, 3-descladinosyl-11,12-dideoxy-6-O-methyl-3-oxo-12,11-(oxycarbonyl-(1-(naphthalene-1-methyl)-azetidin-3-yl)-imino)-erythromycin A]
[1]; Streptococcus pyogenes 1079
  MIC S. pyogenes 1079: 8 µg/mL (≈ 9.9 µM)
[2]; Streptococcus pneumoniae 1016
  MIC S. pneumo. 1016: <0.063 µg/mL
[3]; Streptococcus pneumoniae 1095
  MIC S. pneumo. 1095: 0.125 µg/mL (≈ 0.155 µM)
[4]; Streptococcus pneumoniae 1175
  MIC S. pneumo. 1175: <0.063 µg/mL
[5]; Haemophilus influenzae 1218
  MIC H. influenzae 1218: 1 µg/mL (≈ 1.24 µM)

## CCC1OC(=O)C(C)C(=O)C(C)C(OC2OC(C)CC(N(C)C)C2O)C(C)(OC)CC(C)C(=O)C(C)C2N(CC3CCN(Cc4cccc5nccnc45)CC3)C(=O)OC12C (stereo not shown) [15.01]
[1]; S. pyogenes 1079 (ermB)
  MIC S. pyogenes 1079: >64.00 µg/mL
[2]; [6]
  MIC S. pneumo. 1016: <0.06 µg/mL
[3]; S. pneumoniae 1095 (ermB)
  MIC S. pneumo. 1095: >64.00 µg/mL
[4]; S. pneumoniae 1175 (mefA)
  MIC S. pneumo. 1175: 0.25 µg/mL (≈ 0.293 µM)
[5]; [7]
  MIC H. influenzae 1218: 32 µg/mL (≈ 37.6 µM)

## CCC1OC(=O)C(C)C(=O)C(C)C(OC2OC(C)CC(N(C)C)C2O)C(C)(OC)CC(C)C(=O)C(C)C2N(C3CN(Cc4cccc5ncoc45)C3)C(=O)OC12C (stereo not shown) [Example 1.13, (benzooxazol-7-yl)methyl]
[1]; Streptococcus pyogenes 1079
  MIC S. pyogenes 1079: 64 µg/mL (≈ 80.1 µM)
[2]; Streptococcus pneumoniae 1016
  MIC S. pneumo. 1016: <0.06 µg/mL
[3]; Streptococcus pneumoniae 1095
  MIC S. pneumo. 1095: 0.12 µg/mL (≈ 0.15 µM)
[4]; Streptococcus pneumoniae 1175
  MIC S. pneumo. 1175: 1 µg/mL (≈ 1.25 µM)
[5]; Haemophilus influenzae 1218
  MIC H. influenzae 1218: 0.25 µg/mL (≈ 0.313 µM)

## CCC1OC(=O)C(C)C(=O)C(C)C(OC2OC(C)CC(N(C)C)C2O)C(C)(OC)CC(C)C(=O)C(C)C2N(C3CN(C(=O)c4cccc(-c5noc(C)n5)c4)C3)C(=O)OC12C (stereo not shown) [Example 2.16, 3-(5-methyl-1,2,4-oxadiazol-3-yl)benzoyl]
[1]; Streptococcus pyogenes 1079
  MIC S. pyogenes 1079: >64.00 µg/mL
[2]; Streptococcus pneumoniae 1016
  MIC S. pneumo. 1016: <0.06 µg/mL
[3]; Streptococcus pneumoniae 1095
  MIC S. pneumo. 1095: 16 µg/mL (≈ 18.7 µM)
[4]; Streptococcus pneumoniae 1175
  MIC S. pneumo. 1175: 0.25 µg/mL (≈ 0.293 µM)
[5]; Haemophilus influenzae 1218
  MIC H. influenzae 1218: 64 µg/mL (≈ 74.9 µM)

## CC[C@H]1OC(=O)[C@H](C)C(=O)[C@H](C)[C@@H](O[C@@H]2O[C@H](C)C[C@H](N(C)C)[C@H]2O)[C@](C)(OC)C[C@@H](C)C(=O)[C@H](C)[C@H]2N(C3CCN(Cc4cccc5[nH]cnc45)C3)C(=O)O[C@]12C.O=CO (stereo partly shown) [Example 8.01, (1H-benzo[d]imidazo-4-yl)methyl]
[1]; S. pyogenes 1079 (ermB)
  MIC S. pyogenes 1079: >64.00 µg/mL
[2]; [6]
  MIC S. pneumo. 1016: <0.06 µg/mL
[3]; S. pneumoniae 1095 (ermB)
  MIC S. pneumo. 1095: >64.00 µg/mL
[4]; S. pneumoniae 1175 (mefA)
  MIC S. pneumo. 1175: 0.25 µg/mL
[5]; [7]
  MIC H. influenzae 1218: 8 µg/mL

## CCC1OC(=O)C(C)C(=O)C(C)C(OC2OC(C)CC(N(C)C)C2O)C(C)(OC)CC(C)C(=O)C(C)C2N(CC3CCN(Cc4ccc(OC)nc4)C3)C(=O)OC12C (stereo not shown) [11.07]
[1]; S. pyogenes 1079 (ermB)
  MIC S. pyogenes 1079: 16 µg/mL (≈ 19.6 µM)
[2]; [6]
  MIC S. pneumo. 1016: <0.06 µg/mL
[3]; S. pneumoniae 1095 (ermB)
  MIC S. pneumo. 1095: <0.06 µg/mL
[4]; S. pneumoniae 1175 (mefA)
  MIC S. pneumo. 1175: 0.25 µg/mL (≈ 0.306 µM)
[5]; [7]
  MIC H. influenzae 1218: 1 µg/mL (≈ 1.22 µM)
